In data set [1] the test system is bone marrow derived macrophages (BMMs). Description: FRET assay for antigen cytosolic transfer (CCF4-AM/β-lactamase) in bone marrow derived macrophages. In kind it is cell-based, C57/black-6 mice. The note with it: for transfer of β-lactamase to the cytosol (450/535 nm ratio, CCF4 cleavage): compound 15 minutes at 37°C (AACOCF3 0.25mM, baïcalein 1mM, indomethacin 1mM, sulindac sulphide 1mM, ICI192605 1mM, arachidonic acid 80µM), then 1 mg/ml β-lactamase 90 minutes at 37°C; for effect on indomethacin induced transfer of β-lactamase to the cytosol: indomethacin 1mM 15 minutes, then β-lactamase with wortmannin 0.5µM, radicicol 25µM or Pyr41 10µM for 90 minutes at 37°C; for reversal of inhibitor-induced antigen transfer to the cytosol (complementation): after indomethacin 1mM or AACOCF3 0.25mM, diMePGE2 or U46619 10µM added with β-lactamase for 90 minutes at 37°C. As for the experimental part: Primary Cells and Mice - Bone marrow derived dendritic cells and macrophages were isolated by flushing femur and tibia from 6 to 9 weeks old C57/black-6 mice with ROSWELL PARK MEMORIAL INSTITUTE-1640 (RPMI-1640) supplemented with GLUTAMAX using 5 ml syringes (BD PLASTIPAK) and 0.5 x 16 mm needles 25G 5/8 (BD MicroLance). After centrifugation at 1000 rpm for 4 minutes, cells were resuspended in 1.66% NH4Cl, and put at 4°C for 10 minutes. After centrifugation at 1,000 rpm for 4 minutes, cells were quantified and incubated at 37°C/5% CO2 for 7 to 10 days in RPMI-1640 with GLUTAMAX containing 10% v/v fetal calf serum (GIBCO) and 50µg/ml penicillin/streptomycin (GIBCO). Granulocytes and macrophages-colony stimulating factor (GM-CSF, MILTENIY BIOTEC) and macrophages-colony stimulating factor (M-CSF, PREPROTECH) were added at day 0 at a concentration of 50 ng/ml in order to allow dendritic cells or macrophages differentiation. Dendritic cells were replated every 3 days adding each time fresh GM-CSF. Macrophages were supplemented with fresh M-CSF at day 4 and replated at day 7 with M-CSF at 25ng/ml. Plasmacytoïd and conventional dendritic cells were isolated from C57/black-6 mice spleen using a plasmacytoïd dendritic cell isolation kit (MILTENYI BIOTEC) and a CD8+ dendritic cell isolation kit (MILTENYI BIOTEC). BMDCs, pDCs and cDCs were adhered on 0.01% poly-lysine coated plates in phosphate buffer saline (PBS).
(§1) FRET assay for antigen cytosolic transfer - 30,000 to 50,000 cells were seeded on 96 well plates and loaded in a mix containing 3.3µM CCF4-AM (INVITROGEN), 1mM probenecid (SIGMA) and 1.5µl solution B (INVITROGEN) in EM buffer (120mM NaCl, 7mM KCI, 1.8mM CaCl2, 0.8mM MgCl2, 5mM glucose and 25mM HEPES at pH 7.3) in a final volume of 30 µl at 37°C. Following 1 mg/ml β-lactamase incubation in EM buffer, cells were washed with 1mM PBS/probenecid and imaged in EM buffer containing 1mM probenecid.
(§2) Fluorescence microscopy and image analysis - All acquisitions were performed on a NIKON TI WIDEFIELD microscope with a 20X N-Plan Objective. Experiments in triplicates were repeated at least 3 times independently for each condition using 25 pictures per replicate randomly and automatically. Image analysis was performed using custom-designed algorithms as described in Ray et al. 2010 (Cell Microbiol. 12(4): 545-556) and Simeone et al. 2012 (PLoS Pathog. 8(2): e1002507). Briefly, the 450 and 535 nm emission signals were scored automatically for each individual cells on a large set of images using METAMORPH. The quantitative parameters were then exported as an EXCEL file in which the ratio between the intensity of the 450 and 535 nm emission signals were presented as an average of the ratio in the whole cell population. After algorithm processing, mean ratios 450/535 nm from different replicates were obtained and pooled together as an average and the status of cytosolic transfer was assessed. Error bars represent standard deviation.

For data set [2] the following is noted: at 37°C; cited from earlier work.
The subject of data set [3] is BV2 macrophages-like cells. Description: FRET assay for antigen cytosolic transfer (CCF4-AM/β-lactamase) in BV2 macrophage like cells. To be noted: indomethacin 1mM 15 minutes; for indomethacin induced transfer of β-lactamase adsorbed to beads or expressed by E. coli: increasing amount of beads adsorbed or E. coli expressed β-lactamase at 37°C for 90 minutes; for indomethacin induced cytosolic transfer as a function of external β-lactamase concentration: increasing amount of β-lactamase at 37°C for 90 minutes. In kind it is cell-based, Murine. As for the experimental part: Cell lines - Murine Raw and BV2 macrophages like cells were cultured in RPMI-1640 with GLUTAMAX (GIBCO) containing 10% v/v fetal calf serum (GIBCO) and 50 µg/ml penicillin/streptomycin (GIBCO). B3Z were cultured in the same medium but supplemented with 1mg/ml G418 (SIGMA) and 0.4 mg/ml hygromycin B (SIGMA). JAWS-II cells were cultured in Iscove's Modified Dulbecco's Media (IMDM) with L-Glutamine and 25mM HEPES containing 10% v/v fetal calf serum (GIBCO), 50 µg/ml penicillin/streptomycin (GIBCO) and 5ng/ml GM-CSF. All cell lines were maintained at 37°C and 5% CO2.
Preparation of beads and bacteria - E. coli DH5α were used expressing β-lactamase from a pBAD18 plasmid. After PBS washing, bacteria were re-suspended in EM buffer and the MOI was calibrated by measuring the absorbance of the overnight culture at OD 600nm. 3µm polystyrene beads (TEBU-BIO) were washed once before adsorption with β-lactamase at 4°C on a rotating wheel overnight. After PBS washing, beads were re-suspended in PBS buffer.
as §1, §2

For data set [4], the system named is bone marrow derived macrophages (BMMs). Description: Cytosolic delivery of fluorescent antigens (Cy3-dextran, Cy3-β-lactamase, Cy3) by widefield microscopy. The note with it: indomethacin 1mM 15 minutes; for transfer of fluorescent dextran to the cytosol: 10-kDa Cy3-dextran 1 mg/ml for 90 minutes; for transfer of Cy3-labelled β-lactamase to the cytosol: Cy3-Bla 0.2 mg/ml for 90 minutes. In kind it is cell-based, C57/black-6 mice.

The test system of a further data set is HeLa cells. Kind of data set: FRET assay for antigen cytosolic transfer (CCF4-AM/β-lactamase) in HeLa cells. The data set is classed as cell-based. To be noted: indomethacin 1mM 15 minutes at 37°C, 1 mg/ml β-lactamase 90 minutes.
Data set [5] has as its system bone marrow derived dendritic cells (BMDCs). Kind of data set: B3Z cross-priming experiments (cross-presentation of ovalbumin). The data set is classed as cell-based, C57/black-6 mice. The note with it: 15 minutes indomethacin 1mM or lactacystine 3µM, serial dilutions of ovalbumin 4 hours, B3Z hybridoma cells 1:1 overnight. As for the experimental part: B3Z cross-priming experiments - 50,000 BMDCs per well were seeded on poly-L-lysine coated 96 well plates. After treatment with DMSO, 3µM lactacystine, or 1mM indomethacin for 15 minutes in RPMI-1640 complemented with 10% v/v fetal calf serum and 50 µg/ml penicillin/streptomycin at 37°C, cells were incubated with serial dilutions (from 3 to 0.0275 mg/ml) of ovalbumin (EUROMEDEX) for 4 hours. Triplicates were performed for each concentration and serial dilutions of the SIINFEKL 257-264 peptide (POLYPEPTIDE GROUP) were used as positive control (dilutions 1/10 starting from 0.1µg/ml). After 3 washes, cells are incubated overnight with 50,000 B3Z hybridoma cells at 37°C, washed once and subjected to the chlorophenol red-D-galactopyranoside (CPRG) detergent mix containing 100mM β-mercaptoethanol, 100mM MgCl2, 0.125% NP40 and 0.15mM CPRG at 37°C for 4 hours. OD 492 as indicator of β-galactosidase (lacZ) activity produced under the control of the interleukin 2 promoter was subsequently measured by plate reader. Data were obtained from 3 independent experiments and plotted by GRAPHPAD PRISM (error bars: standard deviation).

“Also recorded” adds a separate entry of the source.

Take `CCCCC/C=C\C/C=C\C/C=C\C/C=C\CCCC(=O)C(F)(F)F` [AACOCF3, 1,1,1-trifluoro-6Z,9Z,12Z,15Z-heneicosatetraen-2-one]: in data set [1], the “transfer of β-lactamase to the cytosol (450/535 nm ratio, CCF4 cleavage)” value (“transfer … (450/535 nm ratio, CCF4 cleavage)” below) is “dramatically and robustly boosted transfer of the model antigen β-lactamase to the cytosol”.

`O=C(O)CC/C=C\CC1COC(c2ccccc2Cl)OC1c1ccccc1O` (stereo not drawn) [ICI192605, 4-(Z)-6-(2-o-Chlorophenyl-4-o-hydroxyphenyl-1,3-dioxan-cis-5-yl)hexenoic acid]: in data set [1], the “transfer … (450/535 nm ratio, CCF4 cleavage)” value was “led to a robust antigen transfer”.

As to `CCCCC[C@H](O)/C=C/[C@H]1[C@H](O)CC(=O)[C@@H]1C/C=C\CCCC(=O)O` [PGE2, prostaglandin E2], the half-life result in data set [2] is listed as “less than one minute”.

Turning to `CCOC(=O)c1ccc(N2NC(=O)/C(=C/c3ccc([N+](=O)[O-])o3)C2=O)cc1` [Pyr41], the “effect on indomethacin induced transfer of β-lactamase to the cytosol” value in data set [1] was “decreased cytosolic antigen transfer induced by indomethacin; also recorded: restrained”.

In the case of `CCCCC[C@H](O)/C=C/[C@H]1O[C@H]2C[C@H](O2)[C@@H]1C/C=C\CCCC(=O)O` [TXA2, Thromboxane A2], the half-life result in data set [2] is given as “less than one minute”.

As to `CCCCC[C@H](O)/C=C/[C@@H]1[C@@H](C/C=C\CCCC(=O)O)[C@H]2CO[C@@H]1C2` [U46619], the “reversal of inhibitor-induced antigen transfer to the cytosol (complementation)” value in data set [1] is “reduced the inhibitor-induced antigen transfer to the cytosol”.

With `CCCCC/C=C\C/C=C\C/C=C\C/C=C\CCCC(=O)O` [arachidonic acid], the “transfer … (450/535 nm ratio, CCF4 cleavage)” value in data set [1] is given as “triggered cytosolic access of our model antigen β-lactamase”.

For `C/C=C/[C@H]1O[C@@](O)([C@@H](C)[C@H](O)[C@H](C)[C@H]2OC(=O)/C(OC)=C/C(C)=C/[C@@H](C)[C@@H](O)[C@@H](C)[C@@H](O)[C@H](C)C/C(C)=C/C=C/[C@@H]2OC)C[C@@H](O[C@H]2C[C@@H](O)[C@H](OC(N)=O)[C@@H](C)O2)[C@@H]1C` [conB, Concanamycin B], in data set [1] (concanamycin B 25nM or protease inhibitors 1X with β-lactamase for 90 minutes at 37°C), the “cytosolic transfer of β-lactamase on increased endosomal antigen stability” value is reported as “neither conB nor PI incubation led to any cytosolic transfer of β-lactamase”.

As to `CCCCC(C)(C)[C@H](O)/C=C/[C@H]1[C@H](O)CC(=O)[C@@H]1C/C=C\CCCC(=O)O` [dimethylPGE2, dimethyl-prostaglandin E2], the “reversal of inhibitor-induced antigen transfer to the cytosol (complementation)” value in data set [1] was “did not lead to a reversal of the effect of antigen transfer to the cytoplasm”.

Consider `COc1ccc2c(c1)c(CC(=O)O)c(C)n2C(=O)c1ccc(Cl)cc1` [indomethacin, 1-(4-chlorobenzoyl)-5-methoxy-2-methyl-1H-indole-3-acetic acid], for which the “indomethacin induced transfer of β-lactamase adsorbed to beads or expressed by E. coli” value is reported as “same dose-dependency” in data set [3] and “is also able to trigger the transfer of β-lactamase when adsorbed to beads or expressed by E. coli in BV2 macrophages-like cells in a dose dependent manner” in data set [3] (listed as Indomethacin). In addition, the entries for the “indomethacin induced cytosolic transfer as a function of external β-lactamase concentration” value in data set [3] and in data set [3] (listed as Indomethacin) were “dose-dependent on the external concentration of β-lactamase” and “depends on the external concentration of β-lactamase”, respectively. In addition, the “transfer … (450/535 nm ratio, CCF4 cleavage)” value in data set [1] is “led to a robust cytosolic transfer of beta-lactamase”. The “transfer of fluorescent dextran to the cytosol” value in data set [4] is “the staining switched to cytosolic staining”; in data set [4] (listed as Indomethacin), “triggers the transfer of Cy3 labeled β-lactamase, dextran and Cy3 to the cytosol”. The “transfer of Cy3 alone to the cytosol” value in data set [4] (Cy3 0.2 mg/ml for 90 minutes, listed as Indomethacin) was “triggers the transfer of Cy3 labeled β-lactamase, dextran and Cy3 to the cytosol”. The “transfer of Cy3-labelled β-lactamase to the cytosol” value is “induced not only the transfer of Cy3-labelled β-lactamase” in data set [4]; “triggers the transfer of Cy3 labeled β-lactamase, dextran and Cy3 to the cytosol” in data set [4] (listed as Indomethacin). Besides, the “transfer of β-lactamase to the cytosol in HeLa cells” value with HeLa cells is reported as “no cytosolic β-lactamase delivery”; in the data set with HeLa cells (listed as Indomethacin) it was “does not trigger the transfer of β-lactamase to the cytosol”. Further, the figures for the “cross-presentation of ovalbumin (B3Z lacZ activity, CPRG)” value in data set [5] and in data set [5] (listed as Indomethacin) were “displayed enhanced capacities for cross-priming compared to the DMSO control” and “promotes cross-presentation of ovalbumin”, respectively.

With `CC(=O)N[C@@H](CSC(=O)[C@]1([C@@H](O)C(C)C)NC(=O)[C@H](C)[C@@H]1O)C(=O)O` [lactacystin], in data set [5], the “cross-presentation of ovalbumin (B3Z lacZ activity, CPRG)” value is “do not cross-present ovalbumin”.

For the compound `C[C@@H]1C[C@H]2O[C@@H]2/C=C\C=C\C(=O)Cc2c(Cl)c(O)cc(O)c2C(=O)O1` [radicicol], in data set [1], the “effect on indomethacin induced transfer of β-lactamase to the cytosol” value is reported as “restrained”.

The values are drawn from patent EP3037106A1, “TXA2 inhibitor as stimulator or inducer of MHC Class I cross-presentation” (INSTITUT PASTEUR, priority 2014, dated 2016).
